According to US20230167127A1, “COMPOUNDS AND THEIR USE IN THE TREATMENT OF BACTERIAL INFECTION” (Hoffmann-La Roche Inc., priority 2020, published 2023):
Like-named read-outs stand apart in the source and are kept apart here.

System: Escherichia coli ATCC 25922
Assay: 50% growth inhibitory concentration (IC50) determination, Iso-Sensitest broth dilution
Type: cell-based
Details: strain Escherichia coli ATCC 25922, 10-point broth dilution, optical density at 600 nm over 16 h, read-out: Escherichia coli growth inhibition IC50
Description: 50% Growth Inhibitory Concentration (IC50) Determination
The in vitro antimicrobial activity of the compounds was determined according to the following procedure:
The assay used a 10-point Iso-Sensitest broth dilution method to measure quantitatively the in vitro
ATCC 25922, Acinetobacter baumannii ATCC 17961, Klebsiella pneumoniae ATCC 43816 and Staphylococcus aureus ATCC 29213.
Stock compounds in DMSO were serially twofold diluted (e.g. range from 50 to 0.097 μM final concentration) in 384 wells microtiter plates and inoculated with 50 μL of the bacterial suspension in Iso-
ell of 50 μL/well. Microtiter plates were incubated at 35±2° C.
Bacterial cell growth was determined with the measurement of optical density at λ=600 nm each 20 minutes over a time course of 16 h.
Growth inhibition was calculated during the logarithmic growth of the bacterial cells with
Table 1 provides the 50% growth inhibitory concentrations (IC50) in micromoles per liter of the compounds of present invention obtained against the strain Escherichia coli ATCC 25922.

[1] = Escherichia coli, ATCC25922, 16 h

| IC50 [1] [nM] | IC50 [nM] | Structure (SMILES) |
| --- | --- | --- |
| < 97.7 |  | O=C1COc2ncc(N3CC4(CCN(CC5Cc6ccnc(Cl)c6C5)CC4)OC3=O)nc2N1 (stereo not drawn) [Example 373, 6-[8-[(1-chloro-6,7-dihydro-5H-cyclopenta[c]pyridin-6-yl)methyl]-2-oxo-1-oxa-3,8-diazaspiro[4.5]decan-3-yl]-4H-pyrazino[2,3-b][1,4]oxazin-3-one] |
| < 97.7 |  | Cn1nnc(COc2cc(C#N)c3c(c2)CC(CNCCC2CN(c4cnc5c(n4)NC(=O)CO5)C(=O)O2)C3)n1 (stereo not drawn) [Example 389, 6-[(2-methyltetrazol-5-yl)methoxy]-2-[[2-[2-oxo-3-(3-oxo-4H-pyrazino[2,3-b][1,4]oxazin-6-yl)-1,3-oxazolidin-5-yl]ethylamino]methyl]-2,3-dihydro-1H-indene-4-carbonitrile] |
| 945 |  | CC(C)(CC1CN(c2ccc3c(n2)NC(=O)CO3)C(=O)O1)NCC1Cc2cccc(C#N)c2C1 (stereo not drawn) [Example 29, 2-[[[2-methyl-1-[2-oxo-3-(3-oxo-4H-pyrido[3,2-b][1,4]oxazin-6-yl)-1,3-oxazolidin-5-yl]propan-2-yl]amino]methyl]-2,3-dihydro-1H-indene-4-carbonitrile] |
| 166 |  | O=C1COc2ncc(N3CC(CCNCC4Cc5c(F)cc(OCc6cc[nH]n6)c(F)c5C4)OC3=O)nc2N1 (stereo not drawn) [Example 395, 6-[5-[2-[[4,7-difluoro-5-(1H-pyrazol-3-ylmethoxy)-2,3-dihydro-1H-inden-2-yl]methylamino]ethyl]-2-oxo-1,3-oxazolidin-3-yl]-4H-pyrazino[2,3-b][1,4]oxazin-3-one] |
| 149 |  | N#Cc1cccc2c1C(O)C(CNCCC1CN(c3ccc4c(n3)NC(=O)CS4)C(=O)O1)C2 (racemic) [Example 152, rac-2,3-trans-3-hydroxy-2-[[2-[2-oxo-3-(3-oxo-4H-pyrido[3,2-b][1,4]thiazin-6-yl)-1,3-oxazolidin-5-yl]ethylamino]methyl]-2,3-dihydro-1H-indene-4-carbonitrile; formic acid] |
| < 97.7 |  | NCCOc1ccc2c(c1Cl)CC(CNCCC1CN(c3ccc4c(n3)NC(=O)CO4)C(=O)O1)C2 (stereo not drawn) [Example 116, 6-[5-[2-[[5-(2-Aminoethoxy)-4-chloro-2,3-dihydro-1H-inden-2-yl]methylamino]ethyl]-2-oxo-1,3-oxazolidin-3-yl]-4H-pyrido[3,2-b][1,4]oxazin-3-one] |
| 135 |  | COCCNCCOc1nc(C)c2c(c1C)CC(CNCCC1CN(c3ccc4c(n3)NC(=O)CO4)C(=O)O1)C2 (stereo not drawn) [Example 202, 6-[5-[2-[[3-[2-(2-methoxyethylamino)ethoxy]-1,4-dimethyl-6,7-dihydro-5H-cyclopenta[c]pyridin-6-yl]methylamino]ethyl]-2-oxo-1,3-oxazolidin-3-yl]-4H-pyrido[3,2-b][1,4]oxazin-3-one] |
|  | < 97.7 | CC(C)(N)COc1cc(F)c2c(c1)CC(CN1CCC3(CC1)CN(c1cnc4c(n1)NC(=O)CO4)C(=O)O3)C2 (single isomer, unassigned; enantiomer b) [Example 378, 6-[8-[[6-(2-Amino-2-methylpropoxy)-4-fluoro-2,3-dihydro-1H-inden-2-yl]methyl]-2-oxo-1-oxa-3,8-diazaspiro[4.5]decan-3-yl]-4H-pyrazino[2,3-b][1,4]oxazin-3-one; formic acid, Enantiomer B] |
| 172 |  | Cc1nccc2c1CC(NCCCc1cn(-c3cnc4c(n3)NC(=O)CO4)c(=O)o1)C2 (single isomer, unassigned; enantiomer a) [Example 369, 6-[5-[3-[(1-Methyl-6,7-dihydro-5H-cyclopenta[c]pyridin-6-yl)amino]propyl]-2-oxo-1,3-oxazol-3-yl]-4H-pyrazino[2,3-b][1,4]oxazin-3-one; formic acid, Enantiomer A] |
| < 97.7 |  | Cc1nc(Cl)c2c(c1F)CC(CNCCC1CN(c3ccc4c(n3)NC(=O)CO4)C(=O)O1)C2 (stereo not drawn) [Example 256, 6-[5-[2-[(1-Chloro-4-fluoro-3-methyl-6,7-dihydro-5H-cyclopenta[c]pyridin-6-yl)methylamino]ethyl]-2-oxo-1,3-oxazolidin-3-yl]-4H-pyrido[3,2-b][1,4]oxazin-3-one] |
| < 97.7 |  | O=C1COc2ccc(N3CC(CCNCC4Cc5cccc(Cl)c5C4)OC3=O)nc2N1 (single isomer, unassigned; isomer a) [Example 6, 6-[5-[2-[(4-chloro-2,3-dihydro-1H-inden-2-yl)methylamino]ethyl]-2-oxo-1,3-oxazolidin-3-yl]-4H-pyrido[3,2-b][1,4]oxazin-3-one, Isomer A] |
| < 97.7 |  | CC(N)COc1cc(F)c2c(c1)CC(CN1CCC3(CC1)CN(c1cnc4c(n1)NC(=O)CO4)C(=O)O3)C2 (stereo not drawn) [Example 260, 6-[8-[[6-(2-Aminopropoxy)-4-fluoro-2,3-dihydro-1H-inden-2-yl]methyl]-2-oxo-1-oxa-3,8-diazaspiro[4.5]decan-3-yl]-4H-pyrazino[2,3-b][1,4]oxazin-3-one; formic acid] |
| 513 |  | N#Cc1cccc2c1CC(CNCCC1CN(c3ccc4c(n3)NC(=O)CO4)C(=O)O1)C2O (racemic) [Example 139, rac-1,2-trans-1-hydroxy-2-[[2-[2-oxo-3-(3-oxo-4H-pyrido[3,2-b][1,4]oxazin-6-yl)-1,3-oxazolidin-5-yl]ethylamino]methyl]-2,3-dihydro-1H-indene-4-carbonitrile] |
| 635 |  | CCn1cc(C(=O)O)c(=O)c2ccc3c(c21)CC(CNCCC1CN(c2cnc4c(n2)NC(=O)CO4)C(=O)O1)C3 (stereo not drawn) [Example 276, 1-Ethyl-4-oxo-8-[[2-[2-oxo-3-(3-oxo-4H-pyrazino[2,3-b][1,4]oxazin-6-yl)-1,3-oxazolidin-5-yl]ethylamino]methyl]-8,9-dihydro-7H-cyclopenta[h]quinoline-3-carboxylic acid] |
| < 97.7 |  | Cc1ncc(Cl)c2c1CC(CNCCC1CN(c3ccc4c(n3)NC(=O)CS4)C(=O)O1)C2N (racemic) [Example 264, 3-(3-Oxo-4H-pyrido[3,2-b][1,4]thiazin-6-yl)-5-[2-[[rac-5,6-trans-5-amino-4-chloro-1-methyl-6,7-dihydro-5H-cyclopenta[c]pyridin-6-yl]methylamino]ethyl]-1,3-oxazolidin-2-one] |
| 617 |  | O=C1COc2ncc(N3CC(CCNCC4Cc5cc(OCCn6nccn6)cc(F)c5C4)OC3=O)nc2N1 (stereo not drawn) [Example 343, 6-[5-[2-[[4-fluoro-6-(2-(triazol-2-yl)ethoxy]-2,3-dihydro-1H-inden-2-yl]methylamino]ethyl]-2-oxo-1,3-oxazolidin-3-yl]-4H-pyrazino[2,3-b][1,4]oxazin-3-one; formic acid] |
| < 97.7 |  | COc1ncc(F)c2c1CC(CNCCC1CN(c3cnc4c(n3)NC(=O)CO4)C(=O)O1)C2 (stereo not drawn) [Example 71, 6-[5-[2-[(4-fluoro-1-methoxy-6,7-dihydro-5H-cyclopenta[c]pyridin-6-yl)methylamino]ethyl]-2-oxo-oxazolidin-3-yl]-4H-pyrazino[2,3-b][1,4]oxazin-3-one] |
| 3400 |  | CC(C)(CC1CN(c2ccc3c(n2)NC(=O)CO3)C(=O)O1)NCC1Cc2ccnc(Cl)c2C1 (stereo not drawn) [Example 30, 6-[5-[2-[(1-chloro-6,7-dihydro-5H-cyclopenta[c]pyridin-6-yl)methylamino]-2-methylpropyl]-2-oxo-1,3-oxazolidin-3-yl]-4H-pyrido[3,2-b][1,4]oxazin-3-one; formic acid] |
| < 97.7 |  | COc1cc2c(c(C#N)n1)CC(CNCCC1CN(c3cnc4c(n3)NC(=O)CO4)C(=O)O1)C2 (stereo not drawn) [Example 65, 3-methoxy-6-[[2-[2-oxo-3-(3-oxo-4H-pyrazino[2,3-b][1,4]oxazin-6-yl)oxazolidin-5-yl]ethylamino]methyl]-6,7-dihydro-5H-cyclopenta[c]pyridine-1-carbonitrile; formic acid] |
| 845 |  | Cc1nc(OCCN)cc2c1CC(CNCCC1CN(c3ccc4c(n3)NC(=O)CO4)C(=O)O1)C2 (stereo not drawn) [Example 209, 6-[5-[2-[[3-(2-aminoethoxy)-1-methyl-6,7-dihydro-5H-cyclopenta[c]pyridin-6-yl]methylamino]ethyl]-2-oxo-1,3-oxazolidin-3-yl]-4H-pyrido[3,2-b][1,4]oxazin-3-one] |
| < 97.7 |  | N#Cc1cc(OCC2(N)CC2)cc2c1CC(CNCCC1CN(c3ccc4c(n3)NC(=O)CO4)C(=O)O1)C2 (stereo not drawn) [Example 185, 6-[(1-aminocyclopropyl)methoxy]-2-[[2-[2-oxo-3-(3-oxo-4H-pyrido[3,2-b][1,4]oxazin-6-yl)-1,3-oxazolidin-5-yl]ethylamino]methyl]-2,3-dihydro-1H-indene-4-carbonitrile] |
| < 97.7 |  | NC1c2cccc(F)c2CC1CNCCC1CN(c2cnc3c(n2)NC(=O)CO3)C(=O)O1 (racemic) [Example 164, 6-[5-[2-[(rac-1,2-trans-1-amino-4-fluoro-2,3-dihydro-1H-inden-2-yl)methylamino]ethyl]-2-oxo-1,3-oxazolidin-3-yl]-4H-pyrazino[2,3-b][1,4]oxazin-3-one; formic acid] |
| < 97.7 |  | O=C1COc2ncc(N3CC(CCNCC4Cc5c(F)cnc(-c6cnc[nH]6)c5C4)OC3=O)nc2N1 (stereo not drawn) [Example 433, 6-[5-[2-[[4-Fluoro-1-(1H-imidazol-5-yl)-6,7-dihydro-5H-cyclopenta[c]pyridin-6-yl]methylamino]ethyl]-2-oxo-1,3-oxazolidin-3-yl]-4H-pyrazino[2,3-b][1,4]oxazin-3-one] |
| 302 |  | CNC(=O)COc1nc(C#N)c2c(c1C)CC(CNCCC1CN(c3ccc4c(n3)NC(=O)CO4)C(=O)O1)C2 (stereo not drawn) [Example 221, 2-((1-Cyano-4-methyl-6-(((2-(2-oxo-3-(3-oxo-3,4-dihydro-2H-pyrido[3,2-b][1,4]oxazin-6-yl)oxazolidin-5-yl)ethyl)amino)methyl)-6,7-dihydro-5H-cyclopenta[c]pyridin-3-yl)oxy)-N-methylacetamide] |
